Values quoted from earlier work as cited in patent US10357529B2, “Natural formulation for treating hangover” (RVRS, LLC, priority 2016, dated 2019).

Columns and labels:
[1] = system: rats
[2] = system: BZ-sites on GABAAR; details: competitive; read-out: IC50, inhibition of BZ-site [3H]flunitrazepam binding
[3] = system: GABAAR; details: 1 μM; hippocampus and cultured neurons

O=C1c2c(O)cc(O)cc2O[C@H](c2cc(O)c(O)c(O)c2)[C@H]1O [DHM, Dihydromyricetin]
EtOH consumption in an intermittent voluntary EtOH intake paradigm [1]: greatly reduced EtOH consumption | effect on acute alcohol (EtOH) intoxication and withdrawal signs ([1]; 1 mg/kg, i.p. injection): counteracted acute alcohol (EtOH) intoxication | IC50 [2]: 4.36 µM | effect on EtOH-induced potentiation of GABAAR's and GABAAR plasticity [3]: antagonized both acute EtOH-induced potentiation of GABAAR's and EtOH exposure/withdrawal-induced GABAAR plasticity
